Source: patent US9650395B2, “Antibacterial compounds and methods for use” (PTC Therapeutics, Inc., priority 2011, dated 2017)
≈ marks a conversion by molar mass, not a printed value. Where two headings read alike, the source gives them in different places.

What was measured:
[1] = tested on: super sensitive Gram-negative Escherichia coli (E. coli) BAS849; assay: Antibacterial activity, microbroth dilution MIC, E. coli BAS849; type: cell-based; details: Escherichia coli, read-out: MIC, BAS849
[2] = tested on: control Gram-negative E. coli 25922 strain; assay: Antibacterial activity, microbroth dilution MIC, E. coli 25922; type: cell-based, Escherichia coli; details: Escherichia coli; E. coli 25922, microbroth dilution; read-out: MIC, 25922
[3] = tested on: Gram-positive Staphylococcus aureus (S. aureus) 29213; assay: Antibacterial activity, microbroth dilution MIC, S. aureus 29213; type: cell-based; details: Staphylococcus aureus; S. aureus 29213, microbroth dilution; read-out: MIC, 29213
[4] = E. coli BAS849, microbroth dilution

Row | Compound | MIC [1, 4] [µg/mL] | MIC [2] [µg/mL] | MIC [3] [µg/mL] | MIC [1] [µg/mL]
1 | CCc1cc(C(=O)O)c(=O)[nH]c1-c1ccc(C#N)cc1 [Cpd 15, 6-(4-cyanophenyl)-5-ethyl-2-oxo-1,2-dihydropyridine-3-carboxylic acid] | 12.5 to 150 (≈ 46.6 to 559 µM) | 12.5 to 150 (≈ 46.6 to 559 µM) | 12.5 to 150 (≈ 46.6 to 559 µM) | –
2 | CCc1c(-c2ccc(N3CCCC3)c(C)c2)[nH]c(=O)c(C(=O)O)c1O [Cpd 71, 5-ethyl-4-hydroxy-6-[3-methyl-4-(pyrrolidin-1-yl)phenyl]-2-oxo-1,2-dihydropyridine-3-carboxylic acid] | 1 to 3.5 (≈ 2.92 to 10.2 µM) | 12.5 to 150 (≈ 36.5 to 438 µM) | 3.5 to 12.5 (≈ 10.2 to 36.5 µM) | –
3 | CCc1cc(C(=O)O)c(=O)[nH]c1-c1ccc(N2CC(OC3CCCCO3)C2)cc1 (stereo not drawn) [Cpd 120, 5-ethyl-2-oxo-6-{4-[3-(tetrahydro-2H-pyran-2-yloxy)azetidin-1-yl]phenyl}-1,2-dihydropyridine-3-carboxylic acid] | < 1 | 12.5 to 150 (≈ 31.4 to 376 µM) | 12.5 to 150 (≈ 31.4 to 376 µM) | –
4 | CCc1c(-c2ccc(Cl)cc2)[nH]c(=O)c(C(=O)O)c1O [Cpd 77, 6-(4-chlorophenyl)-5-ethyl-4-hydroxy-2-oxo-1,2-dihydropyridine-3-carboxylic acid] | 1 to 3.5 (≈ 3.4 to 11.9 µM) | 12.5 to 150 (≈ 42.6 to 511 µM) | 3.5 to 12.5 (≈ 11.9 to 42.6 µM) | –
5 | CCc1cc(C(=O)O)c(=O)[nH]c1-c1ccc(N2Cc3ccccc3C2)cc1 [Cpd 162, 6-[4-(1,3-dihydro-2H-isoindol-2-yl)phenyl]-5-ethyl-2-oxo-1,2-dihydropyridine-3-carboxylic acid] | 3.5 to 12.5 (≈ 9.71 to 34.7 µM) | 12.5 to 150 (≈ 34.7 to 416 µM) | 12.5 to 150 (≈ 34.7 to 416 µM) | –
6 | O=C(O)c1c(O)cc(-c2ccc(N3CCCC3)cc2)[nH]c1=O [Cpd 21, 4-hydroxy-2-oxo-6-[4-(pyrrolidin-1-yl)phenyl]-1,2-dihydropyridine-3-carboxylic acid] | 3.5 to 12.5 (≈ 11.7 to 41.6 µM) | 12.5 to 150 (≈ 41.6 to 499 µM) | 3.5 to 12.5 (≈ 11.7 to 41.6 µM) | –
7 | CCc1c(-c2ccc(I)cc2)[nH]c(=O)c(C(=O)O)c1O [Cpd 81, 5-ethyl-4-hydroxy-6-(4-iodophenyl)-2-oxo-1,2-dihydropyridine-3-carboxylic acid] | 1 to 3.5 (≈ 2.6 to 9.09 µM) | 12.5 to 150 (≈ 32.5 to 389 µM) | 3.5 to 12.5 (≈ 9.09 to 32.5 µM) | –
8 | CCc1cc(C(=O)O)c(=O)[nH]c1-c1ccc(OC)cc1N(C)C [Cpd 40, 6-[2-(dimethylamino)-4-methoxyphenyl]-5-ethyl-2-oxo-1,2-dihydropyridine-3-carboxylic acid] | 12.5 to 150 (≈ 39.5 to 474 µM) | 12.5 to 150 (≈ 39.5 to 474 µM) | 12.5 to 150 (≈ 39.5 to 474 µM) | –
9 | CCc1c(-c2ccc(OC)cc2C)[nH]c(=O)c(C(=O)O)c1O [Cpd 32, 5-ethyl-4-hydroxy-6-(4-methoxy-2-methylphenyl)-2-oxo-1,2-dihydropyridine-3-carboxylic acid] | 3.5 to 12.5 (≈ 11.5 to 41.2 µM) | 12.5 to 150 (≈ 41.2 to 495 µM) | 3.5 to 12.5 (≈ 11.5 to 41.2 µM) | –
10 | C=CCN(CC=C)c1ccc(-c2[nH]c(=O)c(C(=O)O)cc2CC)cc1 [Cpd 299, 6-{4-[di(prop-2-en-1-yl)amino]phenyl}-5-ethyl-2-oxo-1,2-dihydropyridine-3-carboxylic acid] | 1 to 3.5 (≈ 2.96 to 10.3 µM) | 12.5 to 150 (≈ 36.9 to 443 µM) | 12.5 to 150 (≈ 36.9 to 443 µM) | –
11 | CCc1cc(C(=O)O)c(=O)[nH]c1-c1ccc(N2CC3CC2CN3C(=O)OC(C)(C)C)cc1 (stereo not drawn) [Cpd 137, 6-{4-[5-(tert-butoxycarbonyl)-2,5-diazabicyclo[2.2.1]hept-2-yl]phenyl}-5-ethyl-2-oxo-1,2-dihydropyridine-3-carboxylic acid] | – | 12.5 to 150 (≈ 28.4 to 341 µM) | 12.5 to 150 (≈ 28.4 to 341 µM) | < 1
12 | CCc1cc(C(=O)O)c(=O)[nH]c1-c1ccc(N2CCC[C@H]2CN2CCCC2)cc1.O=C(O)C(F)(F)F [Cpd 143, 5-ethyl-2-oxo-6-{4-[(2S)-2-(pyrrolidin-1-ylmethyl)pyrrolidin-1-yl]phenyl}-1,2-dihydropyridine-3-carboxylic acid trifluoroacetate] | – | 12.5 to 150 | 12.5 to 150 | 3.5 to 12.5
13 | CCc1cc(C(=O)O)c(=O)[nH]c1-c1ccc(N2CCCC2)cc1C [Cpd 37, 5-ethyl-6-[2-methyl-4-(pyrrolidin-1-yl)phenyl]-2-oxo-1,2-dihydropyridine-3-carboxylic acid] | 12.5 to 150 (≈ 38.3 to 460 µM) | 12.5 to 150 (≈ 38.3 to 460 µM) | 12.5 to 150 (≈ 38.3 to 460 µM) | –
14 | CCc1cc(C(=O)O)c(=O)[nH]c1-c1ccccc1N1CCCC1 [Cpd 46, 5-ethyl-2-oxo-6-[2-(pyrrolidin-1-yl)phenyl]-1,2-dihydropyridine-3-carboxylic acid] | 12.5 to 150 (≈ 40 to 480 µM) | 12.5 to 150 (≈ 40 to 480 µM) | 12.5 to 150 (≈ 40 to 480 µM) | –
15 | CCc1cc(C(=O)O)c(=O)[nH]c1-c1ccc(N(C)C)cc1C [Cpd 57, 6-[4-(dimethylamino)-2-methylphenyl]-5-ethyl-2-oxo-1,2-dihydropyridine-3-carboxylic acid] | 12.5 to 150 (≈ 41.6 to 499 µM) | 12.5 to 150 (≈ 41.6 to 499 µM) | 12.5 to 150 (≈ 41.6 to 499 µM) | –
16 | CCc1cc(C(=O)O)c(=O)[nH]c1-c1ccc(N2CCCC2)c(C)c1 [Cpd 70, 5-ethyl-6-[3-methyl-4-(pyrrolidin-1-yl)phenyl]-2-oxo-1,2-dihydropyridine-3-carboxylic acid] | < 1 | 12.5 to 150 (≈ 38.3 to 460 µM) | 12.5 to 150 (≈ 38.3 to 460 µM) | –
17 | CCc1c(-c2ccc(N3CCCCC3)c(C)c2)[nH]c(=O)c(C(=O)O)c1O [Cpd 73, 5-ethyl-4-hydroxy-6-[3-methyl-4-(piperidin-1-yl)phenyl]-2-oxo-1,2-dihydropyridine-3-carboxylic acid] | 3.5 to 12.5 (≈ 9.82 to 35.1 µM) | 12.5 to 150 (≈ 35.1 to 421 µM) | 3.5 to 12.5 (≈ 9.82 to 35.1 µM) | –
18 | CCc1cc(C(=O)O)c(=O)[nH]c1-c1ccc(N2CCC(N(CC)CC)C2)cc1.O=C(O)C(F)(F)F (stereo not drawn) [Cpd 172, 6-{4-[3-(diethylamino)pyrrolidin-1-yl]phenyl}-5-ethyl-2-oxo-1,2-dihydropyridine-3-carboxylic acid trifluoroacetate] | – | 3.5 to 12.5 | 12.5 to 150 | < 1
19 | CCc1cc(C(=O)O)c(=O)[nH]c1-c1ccc(N2C(=O)C3C=CC2C3)cc1 (stereo not drawn) [Cpd 119, 5-ethyl-2-oxo-6-[4-(3-oxo-2-azabicyclo[2.2.1]hept-5-en-2-yl)phenyl]-1,2-dihydropyridine-3-carboxylic acid] | 1 to 3.5 (≈ 2.85 to 9.99 µM) | 12.5 to 150 (≈ 35.7 to 428 µM) | 12.5 to 150 (≈ 35.7 to 428 µM) | –
20 | CCc1cc(C(=O)O)c(=O)[nH]c1-c1ccc(F)cc1 [Cpd 26, 5-ethyl-6-(4-fluorophenyl)-2-oxo-1,2-dihydropyridine-3-carboxylic acid] | 12.5 to 150 (≈ 47.8 to 574 µM) | 12.5 to 150 (≈ 47.8 to 574 µM) | 12.5 to 150 (≈ 47.8 to 574 µM) | –
21 | CCc1cc(C(=O)O)c(=O)[nH]c1-c1ccc(OC(C)(C)C)cc1 [Cpd 311, 6-(4-tert-butoxyphenyl)-5-ethyl-2-oxo-1,2-dihydropyridine-3-carboxylic acid] | 3.5 to 12.5 (≈ 11.1 to 39.6 µM) | 12.5 to 150 (≈ 39.6 to 476 µM) | 12.5 to 150 (≈ 39.6 to 476 µM) | –
22 | CCc1cc(C(=O)O)c(=O)[nH]c1-c1ccc(N2C[C@@H](N)[C@H](O)C2)cc1.Cl [Cpd 133, 6-{4-[(3R,4R)-3-amino-4-hydroxypyrrolidin-1-yl]phenyl}-5-ethyl-2-oxo-1,2-dihydropyridine-3-carboxylic acid hydrochloride] | 1 to 3.5 | 12.5 to 150 | 12.5 to 150 | –
23 | CCc1c(-c2ccc(N3CCCC3)s2)[nH]c(=O)c(C(=O)O)c1O [Cpd 307, 5-ethyl-4-hydroxy-2-oxo-6-[5-(pyrrolidin-1-yl)thiophen-2-yl]-1,2-dihydropyridine-3-carboxylic acid] | < 1 | 12.5 to 150 (≈ 37.4 to 449 µM) | 3.5 to 12.5 (≈ 10.5 to 37.4 µM) | –
24 | CCc1c(-c2ccnn2C)[nH]c(=O)c(C(=O)O)c1O [Cpd 345, 5-ethyl-4-hydroxy-6-(1-methyl-1H-pyrazol-5-yl)-2-oxo-1,2-dihydropyridine-3-carboxylic acid] | 12.5 to 150 (≈ 47.5 to 570 µM) | 12.5 to 150 (≈ 47.5 to 570 µM) | 12.5 to 150 (≈ 47.5 to 570 µM) | –
